Assay: Water solubility examination
Assay type: physicochemical
Details: 1.44 mg of oridonin in 4 ml water
Method: Water solubility of the present nanoparticle is examined. 1.44 mg of oridonin is dissolved in 4 ml water. […] Large amount of white insoluble white oridonin powder is observed. On the other hand, oridonin functionalized selenium nanoparticle containing 1.68 mg of oridonin is prepared according to the present invention and dissolved in 4 ml water. […] The oridonin functionalized selenium nanoparticle aqueous solution is orangey red in color and no insoluble residue is observed.

In the case of Oridonin, the water solubility is reported as “insoluble in water”.
